Ki data for 5 molecules are collected here from ChEMBL document CHEMBL5728000, “GCN2 inhibitors and uses thereof” (2020).

The assay deals with eIF-2-alpha kinase GCN2 (Homo sapiens, UniProt Q9P2K8). Nature of the assay: Enzyme Inhibition Assay: An assay buffer containing GCN2 kinase and (RS)7 was prepared. 4.7 μL of this stock solution was placed per well of a black, low volume, 384-well microtitre plate (e.g. catalogue number 3676, Corning Inc., NY). To this was added […] of DMSO containing serial dilutions of the test compound (typical final concentrations of test compound were 0 to 8 μM). The plate was incubated for 10 minutes at 25° C. prior to the addition of 4.7 μL of ATP stock buffer to initiate the enzyme reaction. The reaction was allowed to proceed for 1 hour at 25° C., prior to the addition of 10 μL detection buffer (consisting of appropriate concentrations of ADP2 antibody and ADP Alexa633 tracer in 1× stop and detect buffer as supplied by BellBrook Labs). The reaction was left to incubate for 1 hour at 25° C., prior to measuring the fluorescence polarisation signal (mP) in each well using a PHERAstar FS reader (BMG Labtech, Germany). A general note: Polarisation of emitted light reports the rotation of a fluorescent probe.
eIF-2-alpha kinase GCN2, sequence (Q9P2K8 whole entry): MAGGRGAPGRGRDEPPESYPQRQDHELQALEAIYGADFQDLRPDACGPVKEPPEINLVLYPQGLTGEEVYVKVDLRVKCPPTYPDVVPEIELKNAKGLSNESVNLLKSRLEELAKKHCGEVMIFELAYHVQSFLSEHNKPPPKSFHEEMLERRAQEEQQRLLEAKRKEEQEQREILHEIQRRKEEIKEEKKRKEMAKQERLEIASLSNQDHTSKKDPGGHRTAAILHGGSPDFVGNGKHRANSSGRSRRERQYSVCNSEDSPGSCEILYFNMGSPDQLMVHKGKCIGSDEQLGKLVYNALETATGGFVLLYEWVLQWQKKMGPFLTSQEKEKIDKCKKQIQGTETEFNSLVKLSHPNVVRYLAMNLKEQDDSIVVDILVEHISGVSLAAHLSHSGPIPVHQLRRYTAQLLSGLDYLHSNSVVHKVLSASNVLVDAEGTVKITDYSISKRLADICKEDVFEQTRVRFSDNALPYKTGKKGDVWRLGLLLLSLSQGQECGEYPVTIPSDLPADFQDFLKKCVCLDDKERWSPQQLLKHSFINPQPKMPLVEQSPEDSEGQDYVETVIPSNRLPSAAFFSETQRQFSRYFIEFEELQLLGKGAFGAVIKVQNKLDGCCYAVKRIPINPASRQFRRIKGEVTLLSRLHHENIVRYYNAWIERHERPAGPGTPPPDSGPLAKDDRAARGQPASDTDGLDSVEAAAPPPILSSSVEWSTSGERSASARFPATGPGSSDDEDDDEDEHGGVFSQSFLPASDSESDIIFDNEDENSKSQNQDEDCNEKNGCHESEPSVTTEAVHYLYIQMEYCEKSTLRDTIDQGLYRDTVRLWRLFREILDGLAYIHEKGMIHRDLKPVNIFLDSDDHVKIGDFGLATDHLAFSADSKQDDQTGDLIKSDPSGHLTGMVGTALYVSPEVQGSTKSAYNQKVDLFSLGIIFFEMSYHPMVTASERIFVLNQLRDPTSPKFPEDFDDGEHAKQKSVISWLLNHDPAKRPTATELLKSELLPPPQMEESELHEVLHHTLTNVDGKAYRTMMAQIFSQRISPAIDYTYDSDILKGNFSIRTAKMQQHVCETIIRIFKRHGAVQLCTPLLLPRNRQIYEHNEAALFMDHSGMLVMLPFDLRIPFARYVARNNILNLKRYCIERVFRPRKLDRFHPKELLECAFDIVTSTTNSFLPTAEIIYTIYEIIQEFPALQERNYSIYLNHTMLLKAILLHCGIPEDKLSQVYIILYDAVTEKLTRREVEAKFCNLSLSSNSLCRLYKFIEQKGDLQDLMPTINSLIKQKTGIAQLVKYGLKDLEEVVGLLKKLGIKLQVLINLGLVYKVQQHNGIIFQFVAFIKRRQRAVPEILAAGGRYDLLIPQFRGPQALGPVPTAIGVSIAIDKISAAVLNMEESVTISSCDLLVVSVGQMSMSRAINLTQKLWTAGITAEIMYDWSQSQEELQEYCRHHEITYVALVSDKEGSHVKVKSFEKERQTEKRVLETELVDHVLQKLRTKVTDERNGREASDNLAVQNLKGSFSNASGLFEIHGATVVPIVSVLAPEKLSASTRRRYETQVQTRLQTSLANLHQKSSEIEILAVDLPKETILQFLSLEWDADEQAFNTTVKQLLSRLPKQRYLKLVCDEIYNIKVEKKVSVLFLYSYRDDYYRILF

Consider `Cc1[nH]ncc1[C@@H]1CN(c2nccc(-c3cnc4ccc(C(F)(F)F)cn34)n2)C[C@H](C)O1`, for which the Ki – broadly, a dissociation constant, usually derived from enzyme kinetics or from competition with a known ligand – is < 10 nM.

On to `C[C@H]1C[C@@H](c2cn[nH]c2)CN(c2nccc(-c3cnc4ccc(C(F)(F)F)cn34)n2)C1` (mixture of isomers), for which the Ki is < 10 nM.

Consider `Cc1[nH]ncc1[C@H]1CN(c2nccc(-c3cnc4ccc(C(F)(F)F)cn34)n2)C[C@@H](C)O1` (relative stereo), for which the Ki was < 10 nM.

For `Cc1n[nH]cc1[C@H]1CN(c2ccnc(-c3cnc4ccc(C(F)(F)F)cn34)n2)C[C@@H](C)O1` (relative stereo), the Ki was < 10 nM.

Turning to `C[C@@H]1CN(c2nccc(-c3cnc4ccc(C(F)(F)F)cn34)n2)C[C@H](c2cn[nH]c2)O1` (relative stereo), the Ki was < 10 nM.
